Data taken from ChEMBL document CHEMBL1268921, “New pyridazinone derivatives with vasorelaxant and platelet antiaggregatory activities” (Bioorg Med Chem Lett, 2010).
Active and inactive are the calls of the source. No cut-off for these calls is given here.

Experiments:
[1] = test system: Aorta; test: Vasorelaxant activity against noradrenaline-induced contraction in intact rat aortic rings; type: functional, tissue-based
[2] = test system: Platelet; test: Antiplatelet activity against human platelet assessed as inhibition of thrombin-induced platelet aggregation at <100 uM; type: functional, cell-based
[3] = Antiplatelet activity against human platelet assessed as inhibition of collagen-induced platelet aggregation; type: functional, cell-based
[4] = target: Prostaglandin G/H synthase 1 (Homo sapiens) (UniProt P23219); test: Inhibition of COX1
Prostaglandin G/H synthase 1 (Homo sapiens), sequence (P23219 whole entry): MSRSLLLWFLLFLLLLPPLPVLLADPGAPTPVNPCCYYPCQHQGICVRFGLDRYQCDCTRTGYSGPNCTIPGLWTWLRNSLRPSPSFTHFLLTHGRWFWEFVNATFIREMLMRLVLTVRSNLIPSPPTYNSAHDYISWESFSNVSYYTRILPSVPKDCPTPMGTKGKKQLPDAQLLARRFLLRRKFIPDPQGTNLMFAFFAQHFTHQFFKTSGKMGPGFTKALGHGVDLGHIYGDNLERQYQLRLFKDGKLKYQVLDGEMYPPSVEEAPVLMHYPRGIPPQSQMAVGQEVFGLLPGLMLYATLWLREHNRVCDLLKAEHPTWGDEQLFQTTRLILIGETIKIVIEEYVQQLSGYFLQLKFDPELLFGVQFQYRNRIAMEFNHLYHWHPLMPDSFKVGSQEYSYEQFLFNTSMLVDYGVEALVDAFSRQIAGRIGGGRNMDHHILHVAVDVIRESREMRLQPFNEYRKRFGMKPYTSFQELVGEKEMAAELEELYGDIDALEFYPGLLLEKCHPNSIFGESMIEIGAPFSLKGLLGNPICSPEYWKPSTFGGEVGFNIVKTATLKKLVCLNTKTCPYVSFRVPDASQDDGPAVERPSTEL

SMILES | IC50 [1] [µM] | IC50 [3] [µM] | inhibition [4] | Activity [2]
CC(C)(C)[Si](OCc1ccc(=O)[nH]n1)(c1ccccc1)c1ccccc1 | 62.6 | 1.8 | – | Active
O=c1ccc(CCCO)nn1Cc1ccccc1 | > 100 | 4.7 | – | Active
Cn1nc(CCOCc2ccccc2)ccc1=O | > 100 | > 100 | – | Active
O=c1ccc(CCCO)n[nH]1 | > 100 | > 100 | – | Active
CC(C)(C)[Si](OCc1ccc(=O)n(Cc2ccccc2)n1)(c1ccccc1)c1ccccc1 | > 100 | 4.6 | – | Active
Cn1nc(CCCOCc2ccccc2)ccc1=O | 76.4 | 50.7 | – | Active
Cn1nc(CO)ccc1=O | > 100 | 69.6 | – | Active
CC(C)(C)[Si](OCCc1ccc(=O)n(Cc2ccccc2)n1)(c1ccccc1)c1ccccc1 | > 100 | 4.8 | – | Active
Cn1nc(CCCO)ccc1=O | > 100 | > 100 | – | Active
Cn1nc(CCO)ccc1=O | > 100 | 60.4 | – | Active
O=c1ccc(CCO)nn1Cc1ccccc1 | > 100 | > 100 | – | Active
O=c1ccc(CO)nn1Cc1ccccc1 | > 100 | > 100 | – | Active
Cn1nc(CCCO[Si](c2ccccc2)(c2ccccc2)C(C)(C)C)ccc1=O | > 100 | 2.34 | – | Active
O=c1ccc(CO)n[nH]1 | > 100 | > 100 | – | Active
CC(C)(C)[Si](OCCCc1ccc(=O)[nH]n1)(c1ccccc1)c1ccccc1 | 78.2 | 2.13 | – | Active
Cn1nc(COCc2ccccc2)ccc1=O | > 100 | > 100 | – | Active
O=c1ccc(CCO)n[nH]1 | > 100 | 64.3 | – | Active

Stronger by IC50 [1], values ahead:

IC50 [1] [µM] | IC50 [3] [µM] | inhibition [4] | SMILES | Activity [2]
39.9 | 3.9 | – | CC(C)(C)[Si](OCCCc1ccc(=O)n(Cc2ccccc2)n1)(c1ccccc1)c1ccccc1 | Active
0.122 | 38.5 | – | Cc1[nH]c(=O)c(C#N)cc1-c1ccncc1 [MILRINONE] | –
32.5 | 5.9 | – | O=c1ccc(CCCOCc2ccccc2)nn1Cc1ccccc1 | Active
47 | 3.17 | Active | Cn1nc(CCO[Si](c2ccccc2)(c2ccccc2)C(C)(C)C)ccc1=O | Active
58.4 | 4.55 | – | Cn1nc(CO[Si](c2ccccc2)(c2ccccc2)C(C)(C)C)ccc1=O | Active
56.2 | 3.87 | – | CC(C)(C)[Si](OCCc1ccc(=O)[nH]n1)(c1ccccc1)c1ccccc1 | Active
32.3 | 4.11 | – | O=c1ccc(CCOCc2ccccc2)nn1Cc1ccccc1 | Active
35.3 | 8 | – | O=c1ccc(COCc2ccccc2)nn1Cc1ccccc1 | Active
